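All cell lines were grown in 96-well plates and treated with compound for 48 hours. At the GI50, growth is halved. The concentration for full growth arrest is given as TGI.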

Here are results for 8 compounds from PubChem BioAssay (NCI).

Some test systems named below: DMS 273 small cell lung; M19-MEL melanoma; HCC-2998 colon; DMS 114 small cell lung; IGROV1 ovarian; HOP-18 NSCLC; HCT-15 colon; ACHN renal; KM20L2 colon; SF-539 CNS; NCI-H226 lung; DLD-1 colon; HT29 colon; UACC-62 melanoma; LXFL 529 NSCLC; SNB-78 CNS; MDA-N.
What all share (test): NCI anticancer screen, dose series, 48 h

As for `O=S(=O)(O)c1cc(O)c2c(O)c(N=Nc3ccc(/C=C/c4ccc(N=Nc5c(S(=O)(=O)O)cc6cc(S(=O)(=O)O)cc(O)c6c5O)cc4S(=O)(=O)O)c(S(=O)(=O)O)c3)c(S(=O)(=O)O)cc2c1`, the TGI in the assay with DMS 273 small cell lung, in the assay with M19-MEL melanoma, in the assay with HCC-2998 colon, in the assay with DMS 114 small cell lung, with IGROV1 ovarian and with HOP-18 NSCLC was > 100 µM in each case. In addition, the TGI in the assay on HCT-15 colon, in the assay with ACHN renal, with KM20L2 colon, in the assay on SF-539 CNS, with NCI-H226 lung and in the assay with DLD-1 colon was > 100 µM in each case. The TGI with HT29 colon, in the assay with UACC-62 melanoma and in the assay with LXFL 529 NSCLC was > 100 µM each time.

With `CCN(CC)CCNC(=O)c1ccccc1Nc1c(Cl)cccc1Cl`, the TGI in the assay on DMS 273 small cell lung stood at 30.6 µM; in the assay on M19-MEL melanoma it was 30.2 µM; with HCC-2998 colon it was 21 µM; with DMS 114 small cell lung, 24.8 µM; in the assay with IGROV1 ovarian, 36.1 µM; in the assay with HCT-15 colon it was 26 µM. Moreover, the TGI in the assay on ACHN renal was determined as 31.3 µM; in the assay with KM20L2 colon it was 7.27 µM; in the assay with SF-539 CNS, 32.7 µM; in the assay with NCI-H226 lung it was 38.5 µM; in the assay on DLD-1 colon, 24.7 µM; in the assay on HT29 colon it was 19 µM. The TGI in the assay with SNB-78 CNS worked out at 33.1 µM; in the assay with UACC-62 melanoma it was 32.1 µM; in the assay with LXFL 529 NSCLC it was 30.5 µM.

As to `CCOP(=O)(C/C(=N/NC(C)(C)C)C(=O)Nc1nc2ccc(C)cc2s1)OCC`, the TGI in the assay on DMS 273 small cell lung, in the assay on M19-MEL melanoma, in the assay with HCC-2998 colon, in the assay on DMS 114 small cell lung, in the assay with IGROV1 ovarian and in the assay on HOP-18 NSCLC was > 100 µM throughout. For the same compound, the TGI in the assay with HCT-15 colon, with ACHN renal, with KM20L2 colon, with SF-539 CNS, with NCI-H226 lung and in the assay on HT29 colon was > 100 µM throughout. Moreover, the TGI with SNB-78 CNS, with UACC-62 melanoma and in the assay with LXFL 529 NSCLC was > 100 µM in each case.

As to `CCCC/C=C1\CCC(CN2CCOCC2)C1=O` (stereo not drawn), the TGI came to 17.6 µM in the assay on DMS 273 small cell lung; 15.2 µM with M19-MEL melanoma; 22.1 µM in the assay with HCC-2998 colon; 15.8 µM with DMS 114 small cell lung; 29.2 µM with IGROV1 ovarian; 2.05 µM in the assay with HOP-18 NSCLC. Moreover, the TGI in the assay with HCT-15 colon stood at 9.3 µM; with ACHN renal, 8.23 µM; in the assay on KM20L2 colon, 11.4 µM; with SF-539 CNS it was 17.5 µM; in the assay on NCI-H226 lung, 24.2 µM; in the assay on MDA-N, 22.7 µM. The TGI was 3.13 µM with DLD-1 colon; 12.1 µM in the assay on HT29 colon; 32.3 µM in the assay on SNB-78 CNS; 16 µM in the assay on UACC-62 melanoma; 2.74 µM with LXFL 529 NSCLC. In addition, in the assay on HCT-15 colon, the GI50 was 3.05 µM.

Take `COC(=O)C(=O)C(C(=O)C(=O)Nc1ccc([N+](=O)[O-])cc1C#N)c1nc2ccc([N+](=O)[O-])cc2[nH]c1=O` (stereo not drawn): the TGI in the assay on DMS 273 small cell lung, with M19-MEL melanoma, in the assay on DMS 114 small cell lung, in the assay with HOP-18 NSCLC, with HCT-15 colon and with ACHN renal was > 100 µM in each case. Besides, the TGI in the assay with KM20L2 colon, in the assay with SF-539 CNS, with NCI-H226 lung, in the assay on DLD-1 colon, in the assay with HT29 colon and with SNB-78 CNS was > 100 µM each time. For the same compound, the TGI in the assay with UACC-62 melanoma and in the assay with LXFL 529 NSCLC was > 100 µM throughout.

Take `CC1(Br)C(=O)NC(=O)N([C@H]2C[C@H](O)[C@@H](CO)O2)C1N=[N+]=[N-]` (stereo partly drawn): the TGI in the assay with DMS 273 small cell lung, in the assay with M19-MEL melanoma, in the assay on HCC-2998 colon, in the assay with DMS 114 small cell lung, in the assay with IGROV1 ovarian and in the assay on HOP-18 NSCLC was > 100 µM in each case. Further, the TGI with HCT-15 colon, with ACHN renal, in the assay with KM20L2 colon, in the assay with SF-539 CNS, in the assay with NCI-H226 lung and in the assay with DLD-1 colon was > 100 µM in each case. Moreover, the TGI in the assay with HT29 colon, with SNB-78 CNS, in the assay on UACC-62 melanoma and in the assay on LXFL 529 NSCLC was > 100 µM each time.

As to `CN1C(=O)c2cccc3c([N+](=O)[O-])ccc(c23)C1=O`, the TGI is 15.7 µM with DMS 273 small cell lung; 24.5 µM with M19-MEL melanoma; 17.4 µM in the assay with HCC-2998 colon; 11.2 µM in the assay with DMS 114 small cell lung; 9.43 µM in the assay with IGROV1 ovarian; 30.8 µM with HOP-18 NSCLC. For the same compound, the TGI in the assay on HCT-15 colon is 11 µM; with ACHN renal, 21.7 µM; in the assay with KM20L2 colon, 19.5 µM; in the assay on SF-539 CNS it was 26.2 µM; in the assay with NCI-H226 lung, 4.05 µM; with DLD-1 colon, 12.1 µM. Moreover, the TGI in the assay with SNB-78 CNS is 32 µM; with UACC-62 melanoma, 4.03 µM; in the assay on LXFL 529 NSCLC it was 3.89 µM.

As for `O=C1c2ccccc2N2OC3C4CCC(C4)C3C12c1ccccc1` (stereo not drawn), the TGI with DMS 273 small cell lung, in the assay on M19-MEL melanoma, in the assay with HCC-2998 colon, in the assay with DMS 114 small cell lung, in the assay on IGROV1 ovarian and in the assay with HOP-18 NSCLC was > 100 µM in each case. Moreover, the TGI in the assay with HCT-15 colon, in the assay with ACHN renal, in the assay with KM20L2 colon, in the assay with SF-539 CNS, with NCI-H226 lung and in the assay with DLD-1 colon was > 100 µM in each case. In addition, the TGI in the assay with HT29 colon, in the assay on UACC-62 melanoma and in the assay with LXFL 529 NSCLC was > 100 µM each time.
